Results published in patent US20250032523A1, “ACTIVE HUMAN MILK OLIGOSACCHARIDE PREPARATION WITH ALLERGY-ALLEVIATING FUNCTION, AND USE THEREOF” (Zhejiang Gongshang University, priority 2023, published 2025).
“Also recorded” adds a separate entry of the source.

How the values were obtained:
food allergy mice = assay: Food allergy mice (OVA sensitization), intragastric HMO preparation, RT-qPCR of spleen tissue; type: in vivo, mouse; settings: OVA-sensitized mice, intragastric administration, versus sensitized mice
Source text: The anti-allergy active HMO preparations of LNFP-I and 2′-FL were intragastrically administered to food allergy mice to alleviate food allergy symptoms.
(1) Mice were intragastrically administered with OVA for sensitization, and then intervened with an HMO preparation intervention group 1 (Example 1) and an HMO preparation intervention group 2 (Example 2), respectively.
(2) The mice were sacrificed through cervical dislocation and dissected under sterile conditions, and spleen tissues were collected and stored in liquid nitrogen.
(3) Total RNA was extracted from each mouse spleen tissue and reverse-transcribed into cDNA, and an expression level of an allergy-associated gene was detected by RT-qPCR.
The anti-allergy active HMO preparations were intragastrically administered in a mass ratio of 1:3 to food allergy mice to alleviate food allergy symptoms.
(1) Mice were intragastrically administered with OVA for sensitization, and then intervened with the anti-allergy active HMO preparation prepared in Example 5 at a mass ratio of 1:3.

[1] = system: mouse bone marrow-derived DC line DC2.4; assay: Immune cell allergy model: RT-qPCR of allergy-associated genes in OVA-stimulated DC2.4 cells; type: cell-based; settings: HMO preparation at final concentration 100 μg/mL, versus sensitization group
Protocol: (§1) In a fourth aspect, the present disclosure also provides a use of the active HMO preparation in construction of an immune cell allergy model, where the construction method of the immune cell allergy model includes the following steps: • (1) taking a cryopreserved mouse bone marrow-derived dendritic cell (DC) line DC2.4, and subjecting the cryopreserved mouse bone marrow-derived DC line DC2.4 to recovery, activation, and subculture in an incubator (37° C. and 5% CO2); • (2) sacrificing a Balb/c female mouse through cervical dislocation, collecting a spleen in a clean bench, subjecting the spleen to grinding, red blood cell lysis, washing, and re-suspension with a cell culture medium to obtain a mouse spleen single-cell suspension, and purifying T cells from the spleen single-cell suspension through magnetic bead separation; • (3) inoculating the cells in a 12-well cell culture plate, dividing the cells into a control group, a sensitization group, and an intervention group with 3 biological replicates for each group, and culturing the cells in an incubator (37° C. and 5% CO2); and • (4) extracting total RNA from cells, and detecting an RNA concentration with a nucleoprotein concentration meter for follow-up experiments; and reverse-transcribing the extracted RNA immediately into cDNA, conducting quantitative reverse transcription polymerase chain reaction (RT-qPCR), and with β-actin as an internal reference gene, calculating a relative expression level of a target gene by a 2^−ΔΔCt method.
(§2) In the present disclosure, an effect of the preparation is verified. When the immune cell allergy model is constructed, a sensitinogen used is ovalbumin (OVA), and relative expression levels of genes for a pro-inflammatory factor OX40L, an anti-inflammatory factor IL-10, a Th2-type cytokine IL-5, a Th1-type associated cytokine T-bet, a Th2-type cytokine IL-4, and a Th1-type associated cytokine IFN-γ are calculated.
(1) A cryopreserved mouse bone marrow-derived DC line DC2.4 was taken and subjected to recovery, activation, and subculture, and cells of generation 4 to 6 with a strong activity were selected for the experiment.
(3) The cells were divided into 4 groups with 3 replicates for each group, including a control group, a sensitization group, an HMO preparation intervention group 1 (Example 1), and an HMO preparation intervention group 2 (Example 2). In the HMO preparation intervention groups, an HMO preparation was added at a final concentration of 100 μg/mL to cells, and the cells were cultured in an incubator (37° C. and 5% CO2).
(§3) (4) Total RNA was extracted from cells and reverse-transcribed into cDNA, and an expression level of an allergy-associated gene in the cells was detected by RT-qPCR. […]

[2] = system: purified T cells from mouse spleen; assay: Immune cell allergy model: RT-qPCR of allergy-associated genes in OVA-stimulated purified T cells from mouse spleen; type: cell-based; settings: HMO preparation at final concentration 100 μg/mL, versus sensitization group
Protocol: as §1, §2
(2) An SPF grade Balb/c female mouse was sacrificed through cervical dislocation and dissected under sterile conditions, a spleen tissue was collected and subjected to grinding, red blood cell lysis, washing, and re-suspension with an RPMI-1640 medium to prepare a mouse spleen single-cell suspension, and T cells in the mouse spleen were extracted through magnetic bead separation.
(3) The cells were divided into 4 groups with 3 replicates for each group, including a control group, a sensitization group, an HMO preparation intervention group 1 (Example 1), and an HMO preparation intervention group 2 (Example 2). […]
as §3

## lacto-N-fucopentaose I [intervention group 1]
Food allergy mice
  expression level of the gene for Th1-type associated cytokine IFN-γ in spleen (relative mRNA, RT-qPCR): significantly stimulate an expression level of the gene for IFN-γ to further increase
  expression level of the gene for Th2-type cytokine IL-4 in spleen (relative mRNA, RT-qPCR): does not change significantly
[1]
  expression level of the gene for anti-inflammatory factor IL-10 (relative mRNA, RT-qPCR): significantly stimulate an expression level of a gene for IL-10 to further increase; also recorded: increases more than an expression level of the gene for IL-10 in the intervention group 2
  expression level of the gene for pro-inflammatory factor OX40L (relative mRNA, RT-qPCR): can be reduced
[2]
  expression level of the gene for Th1-type associated cytokine T-bet (relative mRNA, RT-qPCR): significantly stimulate an expression level of the gene for T-bet to increase; also recorded: increases more significantly than an expression level of the gene for T-bet in the intervention group 2
  expression level of the gene for Th2-type cytokine IL-5 (relative mRNA, RT-qPCR): decreases slightly

## 2′-fucosyllactose [intervention group 2]
Food allergy mice
  expression level of the gene for Th1-type associated cytokine IFN-γ in spleen (relative mRNA, RT-qPCR): greatly stimulate an expression level of the gene for IFN-γ to further increase
  expression level of the gene for Th2-type cytokine IL-4 in spleen (relative mRNA, RT-qPCR): decrease significantly
[1]
  expression level of the gene for anti-inflammatory factor IL-10 (relative mRNA, RT-qPCR): significantly stimulate an expression level of a gene for IL-10 to further increase
  expression level of the gene for pro-inflammatory factor OX40L (relative mRNA, RT-qPCR): can be reduced
[2]
  expression level of the gene for Th1-type associated cytokine T-bet (relative mRNA, RT-qPCR): significantly stimulate an expression level of the gene for T-bet to increase
  expression level of the gene for Th2-type cytokine IL-5 (relative mRNA, RT-qPCR): decreases to some degree
